DBAASP
Values after ≈ are worked out from the molar mass of the structure shown.

Assays:
Experiment in all cases: ≥ marks a high value that may be exact or a test limit, other limits are often not marked, values filed in µg/mL are converted to µM
[1] = tested on: Bacillus subtilis ATCC 63501
[2] = tested on: Enterobacter cloacae Ha89
[3] = tested on: Enterobacter cloacae Ha185
[4] = tested on: Acinetobacter baumannii ICB 14067
[5] = tested on: Klebsiella pneumoniae DSM 681
[6] = tested on: Pseudomonas aeruginosa Pa4216
[7] = tested on: Stenotrophomonas sp. ICB 308054
[8] = tested on: Salmonella typhimurium SL1344
[9] = tested on: Enterococcus faecalis ATCC 29212
[10] = tested on: Salmonella enterica subsp. enterica serovar Enteritidis MH91989
[11] = tested on: Klebsiella pneumoniae ATCC 27799
[12] = tested on: Escherichia coli ATCC 25922 ΔsbmA
[13] = tested on: Pseudomonas aeruginosa DSM 3227
[14] = tested on: Staphylococcus aureus Sa1390
[15] = tested on: Proteus vulgaris ICB 9081
[16] = tested on: Shigella flexneri CMCC 51572
[17] = tested on: Proteus vulgaris ICB 9095
Klebsiella pneumoniae = tested on: Klebsiella pneumoniae
[18] = tested on: Klebsiella pneumoniae ATCC 12657
[19] = tested on: Klebsiella pneumoniae 57 USA
Escherichia coli O157:H7 = tested on: Escherichia coli O157:H7
Escherichia coli JJ2487 = tested on: Escherichia coli JJ2487
[20] = tested on: Stenotrophomonas sp. ICB 7569
[21] = tested on: Klebsiella pneumoniae ATCC 10031
[22] = tested on: Pseudomonas aeruginosa Pa1409
[23] = tested on: Shigella dysenteriae CMCC 51252
[24] = tested on: Acinetobacter baumannii ICB 14073
[25] = tested on: Shigella flexneri ATCC 12022
Escherichia coli UB1005 = tested on: Escherichia coli UB1005
[26] = tested on: Acinetobacter baumannii Ab1408
Escherichia coli Neumann = tested on: Escherichia coli Neumann
[27] = tested on: Micrococcus luteus ATCC 10240
[28] = tested on: Acinetobacter baumannii Ab5755
[29] = tested on: Salmonella typhimurium CMCC 50115
[30] = tested on: Pseudomonas aeruginosa Walter
Escherichia coli J2210 = tested on: Escherichia coli J2210

## CC[C@H](C)[C@H](NC(=O)[C@H](CCCN=C(N)N)NC(=O)[C@H](CCCN=C(N)N)NC(=O)[C@@H]1CCCN1C(=O)[C@@H]1CCCN1C(=O)[C@H](CCCN=C(N)N)NC(=O)[C@@H]1CCCN1C(=O)[C@H](CCCN=C(N)N)NC(=O)[C@@H]1CCCN1C(=O)[C@H](CC(C)C)NC(=O)[C@H](Cc1ccc(O)cc1)NC(=O)[C@@H]1CCCN1C(=O)[C@@H]1CCCN1C(=O)[C@H](CCCCN)NC(=O)[C@H](CC(=O)O)NC(=O)[C@@H](N)C(C)C)C(=O)N[C@@H](Cc1ccc(O)cc1)C(=O)N[C@@H](CC(N)=O)C(=O)N[C@@H](CCCN=C(N)N)C(N)=O [VDKPPYLPRPRPPRRIYNR]
[1]
  MIC: ≥ 512 µM
[2]
  MIC: 0.105 µM (≈ 0.25 µg/mL)
[3]
  MIC: 0.209 µM (≈ 0.5 µg/mL)
[4]
  MIC: 0.418 µM (≈ 1 µg/mL)
[5]
  MIC: 1.67 µM (≈ 4 µg/mL)
[6]
  MIC: ≥ 53.5 µM
[7]
  MIC: 13.4 µM (≈ 32 µg/mL)
[8]
  MIC: 0.251 µM (≈ 0.6 µg/mL)
[9]
  MIC: > 512 µM
[10]
  MIC: 0.251 µM (≈ 0.6 µg/mL)
[11]
  MIC: 0.418 µM (≈ 1 µg/mL)
[12]
  MIC: 16 µM (≈ 38.2 µg/mL)
[13]
  MIC: 1.67 µM (≈ 4 µg/mL)
[14]
  MIC: ≥ 53.5 µM
[15]
  MIC: 1.67 µM (≈ 4 µg/mL)
[16]
  MIC: 8 µM (≈ 19.1 µg/mL)
[17]
  MIC: 1.67 µM (≈ 4 µg/mL)
Klebsiella pneumoniae
  MIC: 3.35 µM (≈ 8 µg/mL)
[18]
  MIC: 0.209 µM (≈ 0.5 µg/mL)
[19]
  MIC: 0.105 µM (≈ 0.25 µg/mL)
Escherichia coli O157:H7
  MIC: 1.31 µM (≈ 3.14 µg/mL)
Escherichia coli JJ2487
  MIC: 0.251 µM (≈ 0.6 µg/mL)
[20]
  MIC: 3.35 µM (≈ 8 µg/mL)
[21]
  MIC: 4 µM (≈ 9.56 µg/mL)
[22]
  MIC: ≥ 53.5 µM
[23]
  MIC: 8 µM (≈ 19.1 µg/mL)
[24]
  MIC: 0.837 µM (≈ 2 µg/mL)
[25]
  MIC: 16 µM (≈ 38.2 µg/mL)
Escherichia coli UB1005
  MIC: 0.544 µM (≈ 1.3 µg/mL)
[26]
  MIC: ≥ 53.5 µM
Escherichia coli Neumann
  MIC: 0.837 µM (≈ 2 µg/mL)
[27]
  MIC: 3.35 µM (≈ 8 µg/mL)
[28]
  MIC: ≥ 53.5 µM
[29]
  MIC: 8 µM (≈ 19.1 µg/mL)
[30]
  MIC: 3.35 µM (≈ 8 µg/mL)
Escherichia coli J2210
  MIC: 0.33 µM (≈ 0.79 µg/mL)
